Results as given in US20100215618A1, “NOVEL COMPOUNDS - 644” (Arrow Therapeutics Limited, priority 2009, published 2010).
Read-outs that look alike come from different tables or passages of the source.

Test system: HCV genotype 1a replicon cells Htat2ANeo
Assay: 1a Replicon Assay (cell-based anti-NS5a ELISA)
Conditions: Hepatitis C virus, 72 h
Procedure, shortened: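 HCV 1a Htat2ANeo replicon cells (Et2AN control cells) exposed to compound for 72 h at 37° C without G418/blasticidin. NS5a quantified by cell-based ELISA (anti-NS5a, HRP/OPD, A490); IC50 from percentage reduction versus untreated control. Cytotoxicity TD50 by Cell Titre Blue fluorescence (ex 570/em 590 nm) versus DMSO controls.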

[1] = read-out: pIC50 1a Replicon (converted)

Structure (SMILES)	IC50 (read-out: HCV IC50 Elisa 1a) [nM]	IC50 [1] [nM]
CC(C)(C)OC(=O)N[C@@H](C(=O)N1CCC[C@H]1c1ncc(-c2ccc(-c3ccc(C(=O)Nc4ccc(CN5CCS(=O)(=O)CC5)cc4)cc3)cc2)[nH]1)c1ccccc1 [Example 2, Tert-butyl N-[(1R)-2-[(2S)-2-[5-[4-[4-[[4-[(1,1-dioxo-1,4-thiazinan-4-yl)methyl]phenyl]carbamoyl]phenyl]phenyl]-1H-imidazol-2-yl]pyrrolidin-1-yl]-2-oxo-1-phenyl-ethyl]carbamate]	56	56.2
COC(=O)N[C@H](C(=O)N1CCC[C@H]1c1ncc(-c2ccc(-c3ccc(C(=O)Nc4ccc(CN5CCS(=O)(=O)CC5)cc4)cc3)cc2)[nH]1)C(C)C [Example 3, Methyl N-[(1S)-1-[(2S)-2-[5-[4-[4-[[4-[(1,1-dioxo-1,4-thiazinan-4-yl)methyl]phenyl]carbamoyl]phenyl]phenyl]-1H-imidazol-2-yl]pyrrolidine-1-carbonyl]-2-methyl-propyl]carbamate]	6.46	6.46
COC(=O)N[C@H](C(=O)N1CCC[C@H]1c1ncc(-c2ccc(-c3ccc(C(=O)Nc4ccc(CN5CCS(=O)(=O)CC5)cc4)cc3)cc2)[nH]1)C(C)(C)C [Example 5, Methyl N-[(1S)-1-[(2S)-2-[5-[4-[4-[[4-[(1,1-dioxo-1,4-thiazinan-4-yl)methyl]phenyl]carbamoyl]phenyl]phenyl]-1H-imidazol-2-yl]pyrrolidine-1-carbonyl]-2,2-dimethyl-propyl]carbamate]	33.1	33.1
COC(=O)N[C@H](C(=O)N1CCC[C@H]1c1ncc(-c2ccc(-c3ccc(C(=O)Nc4ccc(CN5CCS(=O)(=O)CC5)cc4)cc3)cc2)[nH]1)c1ccccc1 [Example 6, Methyl N-[(1S)-2-[(2S)-2-[5-[4-[4-[[4-[(1,1-dioxo-1,4-thiazinan-4-yl)methyl]phenyl]carbamoyl]phenyl]phenyl]-1H-imidazol-2-yl]pyrrolidin-1-yl]-2-oxo-1-phenyl-ethyl]carbamate]	33.3	33.1
COC(=O)N[C@@H](C(=O)N1CCC[C@H]1c1ncc(-c2ccc(-c3ccc(C(=O)Nc4ccc(CN5CCS(=O)(=O)CC5)cc4)cc3)cc2)[nH]1)c1ccccc1 [Example 7, Methyl N-[(1R)-2-[(2S)-2-[5-[4-[4-[[4-[(1,1-dioxo-1,4-thiazinan-4-yl)methyl]phenyl]carbamoyl]phenyl]phenyl]-1H-imidazol-2-yl]pyrrolidin-1-yl]-2-oxo-1-phenyl-ethyl]carbamate]	32	32.4
CCN(CC)[C@@H](C(=O)N1CCC[C@H]1c1ncc(-c2ccc(-c3ccc(C(=O)Nc4ccc(CN5CCS(=O)(=O)CC5)cc4)cc3)cc2)[nH]1)c1ccccc1 [Example 8, 4-[4-[2-[(2S)-1-[(2R)-2-(diethylamino)-2-phenyl-acetyl]pyrrolidin-2-yl]-1H-imidazol-5-yl]phenyl]-N-[4-[(1,1-dioxo-1,4-thiazinan-4-yl)methyl]phenyl]benzamide]	4.75	4.79
CN(C)[C@@H](C(=O)N1CCC[C@H]1c1ncc(-c2ccc(-c3ccc(C(=O)Nc4ccc(CN5CCS(=O)(=O)CC5)cc4)cc3)cc2)[nH]1)c1ccccc1 [Example 9, 4-[4-[2-[(2S)-1-[(2R)-2-(dimethylamino)-2-phenyl-acetyl]pyrrolidin-2-yl]-1H-imidazol-5-yl]phenyl]-N-[4-[(1,1-dioxo-1,4-thiazinan-4-yl)methyl]phenyl]benzamide]	13.2	13.2
COC(=O)N[C@@H](CC(C)C)C(=O)N1CCC[C@H]1c1ncc(-c2ccc(-c3ccc(C(=O)Nc4ccc(CN5CCS(=O)(=O)CC5)cc4)cc3)cc2)[nH]1 [Example 14, Methyl N-[(1S)-1-[(2S)-2-[5-[4-[4-[[4-[(1,1-dioxo-1,4-thiazinan-4-yl)methyl]phenyl]carbamoyl]phenyl]phenyl]-1H-imidazol-2-yl]pyrrolidine-1-carbonyl]-3-methyl-butyl]carbamate]	15.7	15.8
CC[C@H](C)[C@H](NC(=O)OC)C(=O)N1CCC[C@H]1c1ncc(-c2ccc(-c3ccc(C(=O)Nc4ccc(CN5CCS(=O)(=O)CC5)cc4)cc3)cc2)[nH]1 [Example 16, Methyl N-[(1S,2S)-1-[(2S)-2-[5-[4-[4-[[4-[(1,1-dioxo-1,4-thiazinan-4-yl)methyl]phenyl]carbamoyl]phenyl]phenyl]-1H-imidazol-2-yl]pyrrolidine-1-carbonyl]-2-methyl-butyl]carbamate]	8.39	8.32
COC(=O)N[C@H](C(=O)N1CCC[C@@H]1c1ncc(-c2ccc(-c3ccc(C(=O)Nc4ccc(CN5CCS(=O)(=O)CC5)cc4)cc3)cc2)[nH]1)C(C)C [Example 20, Methyl N-[(1S)-1-[(2R)-2-[5-[4-[4-[[4-[(1,1-dioxo-1,4-thiazinan-4-yl)methyl]phenyl]carbamoyl]phenyl]phenyl]-1H-imidazol-2-yl]pyrrolidine-1-carbonyl]-2-methyl-propyl]carbamate]	1470	1480
CCCS(=O)(=O)N1CCN(Cc2ccc(NC(=O)c3ccc(-c4ccc(-c5cnc([C@@H]6CCCN6C(=O)[C@@H](NC(=O)OC)C(C)C)[nH]5)cc4)cc3)cc2)CC1 [Example 40, Methyl N-[(1S)-2-methyl-1-[(2S)-2-[5-[4-[4-[[4-[(4-propylsulfonylpiperazin-1-yl)methyl]phenyl]carbamoyl]phenyl]phenyl]-1H-imidazol-2-yl]pyrrolidine-1-carbonyl]propyl]carbamate]	42.6	42.7
COC(=O)N[C@H](C(=O)N1CCOC[C@H]1c1ncc(-c2ccc(-c3ccc(C(=O)Nc4ccc(CN5CCS(=O)(=O)CC5)cc4)cc3)cc2)[nH]1)c1ccccc1 [Example 47, Methyl N-[(1S)-2-[(3R)-3-[5-[4-[4-[[4-[(1,1-dioxo-1,4-thiazinan-4-yl)methyl]phenyl]carbamoyl]phenyl]phenyl]-1H-imidazol-2-yl]morpholin-4-yl]-2-oxo-1-phenyl-ethyl]carbamate]	73.3	74.1
COC(=O)N[C@H](C(=O)N1CCC[C@H]1c1ncc(-c2ccc(-c3ccc(C(=O)Nc4ccc(CN5CCS(=O)(=O)CC5)cc4)cc3)c(C)c2)[nH]1)C(C)C [Example 54, Methyl N-[(1S)-1-[(2S)-2-[5-[4-[4-[[4-[(1,1-dioxo-1,4-thiazinan-4-yl)methyl]phenyl]carbamoyl]phenyl]-3-methyl-phenyl]-1H-imidazol-2-yl]pyrrolidine-1-carbonyl]-2-methyl-propyl]carbamate]	9.38	9.33
